According to US20110059043A1, “CHEMICAL COMPOUNDS” (priority 2009, published 2011):
pIC50: −log10 of the molar value.

How the values were obtained:
[1] = test system: HCV replicon cells Huh 9B; assay: HCV replicon assay (luciferase); assay type: cell-based; conditions: Hepatitis C virus, reduction of replicon level by 50% vs untreated cell control, 72 h
Method: (§1) HCV replicon cells Huh 9B (ReBlikon), containing the firefly luciferase—ubiquitin—neomycin phosphotransferase fusion protein and EMCV-IRES driven HCV polyprotein with cell culture adaptive mutations.
(§2) Cells were cultured at 37° C. in a 5% CO2 environment and split twice a week on seeding at 2×10^6 cells/flask on day 1 and 1×10^6 3 days later. G418 at 0.5 mg/ml was added to the culture medium but not the assay medium. The culture medium consisted of DMEM with […] glucose and glutamax (Gibco 61965-026) supplemented with 1×non-essential amino acids (Invitrogen 11140-035), penicillin (100 IU/ml)/streptomycin (100 μg/ml) (Invitrogen 15140-122), FCS (10%, 50 ml) and […] (Invitrogen 10131-027) & 10% Australian foetal calf serum (Invitrogen 10099-141).
(§3) A flask of cells was trypsinised and a cell count carried out. Cells were diluted to 100,000 cells/ml and 100 μl of this used to seed one opaque white 96-well plate (for the replicon assay) and one flat-bottomed clear plate (for the tox assay) for every five compounds to be tested for IC50. Wells G12 and H12 were left empty in the clear plate as the blank. Plates were then incubated at 37° C. in a 5% CO2 environment for 24 h.
(§4) On the following day compound dilutions are made up in medium at twice their desired final concentration in a clear round bottomed plate. All dilutions have a final DMSO concentration of 1%.
(§5) Once the dilution plate had been made up, controls and compounds were transferred to the assay plates (containing the cells) at 100 μl/well in duplicate wells. Exception: no compound was added to wells A1 and A2 of either plate and 100 μl of 1% DMSO was added to these instead. Plates were then incubated at 37° C. with 5% CO2 for 72 h.
At the end of the incubation time, the cells in the white plate were harvested by washing in PBS (100 μL per well) and gently tapping dry before addition of […] of lysis buffer (25 mM tris-phosphate, 8 mM MgCl2, 1 mM DTT, 1% Triton X-100, 15% glycerol. pH to 7.8 using KH2PO4 prior to triton and glycerol addition. Substrate was prepared: 23.5 mM beetle luciferin (Promega E1603), 26 mM ATP (Sigma O-2060) in […] Tris buffer pH 7.8 aliquoted and stored at −80° C. was thawed and diluted 1:50 in luciferase assay buffer (20 mM Tricine (Sigma T-0377), 1.07 mM magnesium carbonate hydroxide (Sigma M-5671), 0.1 mM EDTA (Sigma E-5134), 2.67 mM MgSO4(BDH 101514Y), 33.3 mM dithiothreitol (Sigma 150460) pH 7.8).
The M injector of the microplate luminometer (Lmax, Molecular Devices) was primed with 5×300 μl injections of the diluted substrate. After 5-60 min incubation in lysis buffer at room temperature, a plate was inserted into the luminometer and 100 μl luciferase assay reagent was added by the injector on the luminometer. The signal was measured using a 1 second delay followed by a 4 second measurement programme. The IC50, the concentration of the drug required for reducing the replicon level by 50% in relation to the untreated cell control value, can be calculated from the plot of the percentage reduction of the luciferase activity vs. drug concentration.

[2] = test system: HCV replicon cells Huh 9B; assay type: cell-based; conditions: concentration reducing total cell area by 50% relative to DMSO controls; 72 h
Method: as §1, §2, §3, §4, §5
The clear plate was stained with 100 μl 0.5% methylene blue in 50% ethanol at room temperature for lh, followed by solvation of the absorbed methylene blue in 100 μl per well of 1% lauroylsarcosine. Absorbance of the plate was measured on a microplate spectrophotometer (Molecular Devices) and the absorbance for each concentration of compound expressed as a proportion of the relative DMSO control. The TD50, the concentration of drug required to reduce the total cell area by 50% relative to the DMSO controls, can be calculated by plotting the absorbance at 620 nm minus background against drug concentration.

[3] = target: T1, Recombinant HCV polymerase (BK strain) (Hepatitis C virus genotype 1b, UniProt P26663); assay: HCV polymerase enzyme assay (radiometric [33P]-UTP incorporation); assay type: biochemical, HCV 1b
T1 construct: Recombinant HCV polymerase (BK strain) was expressed and purified from E. coli with a 21 amino acid C-terminal deletion; His6; made in house; host or cells: E. coli
T1 sequence (P26663 2420-2989): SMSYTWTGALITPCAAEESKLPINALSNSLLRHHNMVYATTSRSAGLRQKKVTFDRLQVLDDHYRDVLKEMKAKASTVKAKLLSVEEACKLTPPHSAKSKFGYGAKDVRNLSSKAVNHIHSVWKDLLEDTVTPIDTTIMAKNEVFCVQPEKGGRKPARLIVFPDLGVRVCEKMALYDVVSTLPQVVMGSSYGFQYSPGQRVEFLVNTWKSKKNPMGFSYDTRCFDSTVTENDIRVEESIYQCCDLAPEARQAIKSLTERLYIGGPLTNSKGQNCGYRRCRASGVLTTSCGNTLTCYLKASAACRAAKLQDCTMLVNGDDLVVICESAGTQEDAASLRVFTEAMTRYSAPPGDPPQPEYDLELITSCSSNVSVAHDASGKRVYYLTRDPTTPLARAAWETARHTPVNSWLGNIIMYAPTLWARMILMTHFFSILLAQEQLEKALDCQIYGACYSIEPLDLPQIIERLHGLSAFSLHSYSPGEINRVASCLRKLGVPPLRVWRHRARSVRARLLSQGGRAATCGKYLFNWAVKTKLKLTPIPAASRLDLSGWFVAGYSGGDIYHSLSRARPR
Method: Compounds were tested for inhibition of HCV polymerase using a radiometric [^33P]-UTP incorporation assay and a biotinylated U13:PolyA primer:template RNA substrate.
Recombinant HCV polymerase (BK strain) was expressed and purified from E. coli with a 21 amino acid C-terminal deletion and a His6-tag. The general assay buffer consisted of 20 mM Tris (pH 7.5), 25 mM KCl, 5 mM MgCl2, 3 mM DTT, 0.5 mg/ml BSA, 0.01% Tween20. The standard reaction, in 96 well plates, contained 10 μl of diluted compound, 50 μl of substrate and 40 μl of enzyme. Compounds, supplied as 10 mM stocks in DMSO, were diluted initially in neat DMSO, and subsequently buffer was added to give a DMSO concentration of 30%; 10 μl of this was added to the assay plate to give a final concentration in the 100 μl assay of 3% DMSO. The biotinylated U13:PolyA RNA substrate was pre-annealed with 40 μM 5′-biotinylated U13 (Dharmacon) and 213 μg/ml PolyA (Amersham Biosciences) in water incubated at 70° C. for 5 minutes before being cooled on ice. Substrate (50 μl) was added in buffer to give a final concentration in the 100 μl assay of 125 nM biotinylated U13:0.63 μg/ml PolyA and 200 nM UTP with 0.4 μCi [^33P]-UTP per well (Perkin Elmer). The reaction was initiated by the addition of 40 μl of enzyme in buffer to give 100 nM final concentration. The reaction was incubated at 25° C. for 100 minutes and then stopped by addition of 100 μl of 100 mM EDTA. The samples were then transferred to 96 well Streptavidin-coated FlashPlates (Perkin Elmer) and incubated at room temperature for ˜1 hour to allow binding to occur. The plates were then washed three times with phosphate-buffered saline containing 0.05% Tween20 in an automated plate washer to remove unincorporated [^33P]-UTP, and then counted in a
Each plate included a set of positive controls (no compound, maximum signal) and negative controls (no enzyme, minimum signal) and in each run at least one reference is compound was included to validate the assay. The IC50, concentration required to inhibit the enzyme activity by 50%, was calculated using an 8-point IC50 curve and fitted using the program XLfit (IDBS).

Row | Compound | pIC50 [1] | Replicon Assay Value TD50 [2] [µM] | pIC50 [3]
1 | COCCCOc1ccc(Cl)cc1C(=O)NC1N=C(c2c(Cl)cc(Cl)cc2Cl)c2ccccc2NC1=O (stereo not drawn) [Example 1, 5-chloro-2-(3-methoxypropoxy)-N-(2-oxo-5-(2,4,6-trichlorophenyl)-2,3-dihydro-1H-benzo[e][1,4]diazepin-3-yl)benzamide] | 6.68 | >25 | 6.45
2 | CO[C@@H](C)COc1ccc(Cl)cc1C(=O)NC1N=C(c2c(Cl)cc(Cl)cc2Cl)c2ccccc2NC1=O (stereo partly drawn) [Example 2, 5-Chloro-2-((S)-2-methoxypropoxy)-N-(2-oxo-5-(2,4,6-trichlorophenyl)-2,3-dihydro-1H-benzo[e][1,4]diazepin-3-yl)benzamide] | 6.42 | >25 | 6.78
3 | CCOCCOc1ccc(Cl)cc1C(=O)NC1N=C(c2c(Cl)cc(Cl)cc2Cl)c2ccccc2NC1=O (stereo not drawn) [Example 3, 5-Chloro-2-(2-ethoxyethoxy)-N-(2-oxo-5-(2,4,6-trichlorophenyl)-2,3-dihydro-1H-benzo[e][1,4]diazepin-3-yl)benzamide] | 7.08 | 16.177 | 6.95
4 | COCC(C)Oc1ccc(Cl)cc1C(=O)NC1N=C(c2c(Cl)cc(Cl)cc2Cl)c2ccccc2NC1=O (stereo not drawn) [Example 4, 5-Chloro-2-(1-methoxypropan-2-yloxy)-N-(2-oxo-5-(2,4,6-trichlorophenyl)-2,3-dihydro-1H-benzo[e][1,4]diazepin-3-yl)benzamide] | 6.52 | >25 | 6.58
5 | COCCOCCOc1ccc(Cl)cc1C(=O)NC1N=C(c2c(Cl)cc(Cl)cc2Cl)c2ccccc2NC1=O (stereo not drawn) [Example 5, 5-Chloro-2-(2-(2-methoxyethoxy)ethoxy)-N-(2-oxo-5-(2,4,6-trichlorophenyl)-2,3-dihydro-1H-benzo[e][1,4]diazepin-3-yl)benzamide] | 6.31 | 15.913 | 6.68
6 | CC(C)COCCOc1ccc(Cl)cc1C(=O)NC1N=C(c2c(Cl)cc(Cl)cc2Cl)c2ccccc2NC1=O (stereo not drawn) [Example 6, 5-Chloro-2-(2-isobutoxyethoxy)-N-(2-oxo-5-(2,4,6-trichlorophenyl)-2,3-dihydro-1H-benzo[e][1,4]diazepin-3-yl)benzamide] | 6.07 | 10.604 | 6.15
7 | CCCCCOCCOc1ccc(Cl)cc1C(=O)NC1N=C(c2c(Cl)cc(Cl)cc2Cl)c2ccccc2NC1=O (stereo not drawn) [Example 7, 5-Chloro-N-(2-oxo-5-(2,4,6-trichlorophenyl)-2,3-dihydro-1H-benzo[e][1,4]diazepin-3-yl)-2-(2-(pentyloxy)ethoxy)benzamide] | 5.84 | 11.806 | 6.18
8 | CCOCCOCCOc1ccc(Cl)cc1C(=O)NC1N=C(c2c(Cl)cc(Cl)cc2Cl)c2ccccc2NC1=O (stereo not drawn) [Example 8, 5-Chloro-2-(2-(2-ethoxyethoxy)ethoxy)-N-(2-oxo-5-(2,4,6-trichlorophenyl)-2,3-dihydro-1H-benzo[e][1,4]diazepin-3-yl)benzamide] | 5.87 | 11.724 | 5.97
9 | O=C(NC1N=C(c2c(Cl)cc(Cl)cc2Cl)c2ccccc2NC1=O)c1cc(Cl)ccc1OCC1CCCO1 (stereo not drawn) [Example 9, 5-Chloro-N-(2-oxo-5-(2,4,6-trichlorophenyl)-2,3-dihydro-1H-benzo[e][1,4]diazepin-3-yl)-2-((tetrahydrofuran-2-yl)methoxy)benzamide] | 6.21 | >25 | 6.53
10 | CCCCOCCOc1ccc(Cl)cc1C(=O)NC1N=C(c2c(Cl)cc(Cl)cc2Cl)c2ccccc2NC1=O (stereo not drawn) [Example 10, 2-(2-Butoxyethoxy)-5-chloro-N-(2-oxo-5-(2,4,6-trichlorophenyl)-2,3-dihydro-1H-benzo[e][1,4]diazepin-3-yl)benzamide] | 6.47 | >25 | 6.12
11 | O=C(NC1N=C(c2c(Cl)cc(Cl)cc2Cl)c2ccccc2NC1=O)c1cc(Cl)ccc1OCCOc1ccccc1 (stereo not drawn) [Example 11, 5-Chloro-N-(2-oxo-5-(2,4,6-trichlorophenyl)-2,3-dihydro-1H-benzo[e][1,4]diazepin-3-yl)-2-(2-phenoxyethoxy)benzamide] | 5.94 | >25 | 6.06
12 | CN(C)CCCOc1ccc(Cl)cc1C(=O)NC1N=C(c2c(Cl)cc(Cl)cc2Cl)c2ccccc2NC1=O (stereo not drawn) [Example 12, 5-Chloro-2-(3-(dimethylamino)propoxy)-N-(2-oxo-5-(2,4,6-trichlorophenyl)-2,3-dihydro-1H-benzo[e][1,4]diazepin-3-yl)benzamide] | 5.26 | 4.253 | 5.50
13 | CN(C)CCOCCOc1ccc(Cl)cc1C(=O)NC1N=C(c2c(Cl)cc(Cl)cc2Cl)c2ccccc2NC1=O (stereo not drawn) [Example 13, 5-Chloro-2-(2-(2-(dimethylamino)ethoxy)ethoxy)-N-(2-oxo-5-(2,4,6-trichlorophenyl)-2,3-dihydro-1H-benzo[e][1,4]diazepin-3-yl)benzamide] | 5.50 | 6.754 | 5.77
14 | COCCOc1ccc(Cl)cc1C(=O)NC1N=C(c2c(Cl)cc(Cl)cc2Cl)c2ccccc2NC1=O (stereo not drawn) [Example 14, 5-Chloro-2-(2-methoxyethoxy)-N-(2-oxo-5-(2,4,6-trichlorophenyl)-2,3-dihydro-1H-benzo[e][1,4]diazepin-3-yl)benzamide] | 7.08 | 19.834 | 6.81
15 | COCCOc1ccccc1C(=O)NC1N=C(c2c(Cl)cc(Cl)cc2Cl)c2ccccc2NC1=O (stereo not drawn) [Example 15, 2-(2-Methoxyethoxy)-N-(2-oxo-5-(2,4,6-trichlorophenyl)-2,3-dihydro-1H-benzo[e][1,4]diazepin-3-yl)benzamide] | 6.96 | 25.845 | 6.52
